Assay results: patent publication US9512125B2, “Substituted pyrazolo[3.4-D] pyrimidines as anti-inflammatory agents” (THE REGENTS OF THE UNIVERSITY OF CALIFORNIA, priority 2004, dated 2016)

What follows are compounds tested on HUVEC with or without PBMC (3C, 4H, SAG and LPS systems) (assay: BioMAP inflammation model systems (3C, 4H, SAG, LPS), cell-based ELISA profiling). Conditions: 4 systems (3C, 4H, SAG, LPS); concentration of 5 micromolar; 24 h stimulation.
Set-up: species or system human

| Compound | Activity |
| --- | --- |
| Cc1ccc(C)c(Cc2nn(C(C)(C)C)c3ncnc(N)c23)c1 [Compound 1] | + |
| CC(C)(C)n1nc(Cc2ccc(Cl)cc2Cl)c2c(N)ncnc21 [Compound 68] | + |
| CC(C)(C)n1nc(Cc2ccc(O)cc2)c2c(N)ncnc21 [Compound 25] | + |
| CCCCCn1nc(Cc2ccccc2Cl)c2c(N)ncnc21 [Compound 84] | active |
| Nc1ncnc2c1c(Cc1ccccc1Cl)nn2C1CCC(O)CC1 (stereo not shown) [Compound 75] | + |
| COCCn1nc(-c2cccc(O)c2)c2c(N)ncnc21 [Compound 52] | active |
| CC(C)(C)n1nc(-c2cc3ccccc3s2)c2c(N)ncnc21 [Compound 86] | active |
| Cn1nc(Cc2ccccc2Cl)c2c(N)ncnc21 [Compound 61] | + |
| Cc1cc(C)cc(Cc2nn(C(C)(C)C)c3ncnc(N)c23)c1 [Compound 3] | + |
| COc1ccccc1Cc1nn(C(C)(C)C)c2ncnc(N)c12 [Compound 28] | + |
| CC(C)(C)n1nc(Cc2cccc(O)c2)c2c(N)ncnc21 [Compound 24] | + |
| CCCCn1nc(Cc2ccccc2Cl)c2c(N)ncnc21 [Compound 89] | active |
| Cc1cccc(-c2nn(C(C)(C)C)c3ncnc(N)c23)c1 [Compound 39] | active |
| CC(C)(C)n1nc(Cc2cc(F)ccc2F)c2c(N)ncnc21 [Compound 79] | active |
| Cc1n[nH]c2ncnc(N)c12 [Compound 46] | + |
| CC(C)(C)c1ccc(-c2nn(C(C)(C)C)c3ncnc(N)c23)cc1 [Compound 14] | + |
| CC(C)(C)n1nc(-c2ccc([N+](=O)[O-])cc2)c2c(N)ncnc21 [Compound 18] | + |
| CC(C)(C)n1nc(-c2cccc(Oc3ccccc3)c2)c2c(N)ncnc21 [Compound 22] | active |
| COC(=O)CCCn1nc(Cc2ccccc2Cl)c2c(N)ncnc21 [Compound 73] | + |
| COCCn1nc(-c2ccccc2)c2c(N)ncnc21 [Compound 51] | + |
| CCOCCn1nc(Cc2ccccc2Cl)c2c(N)ncnc21 [Compound 70] | + |
| CCC(C)CCn1nc(Cc2ccccc2Cl)c2c(N)ncnc21 (stereo not shown) [Compound 85] | active |

| Compound | Activity |
| --- | --- |
| CC(C)n1cc(-c2cccc(O)c2)c2c(NCc3ccccc3)ncnc21 [Compound 53] | active |
| Cn1nc(Cc2ccccc2Br)c2c(N)ncnc21 [Compound 58] | + |
| Cc1ccc(Cc2nn(C(C)(C)C)c3ncnc(N)c23)cc1C [Compound 5] | + |
| Cc1sccc1Cc1nn(C(C)(C)C)c2ncnc(N)c12 [Compound 67] | active |
| CNc1ncnc2c1c(-c1cccc(O)c1)cn2C(C)C [Compound 55] | + |
| Cc1ccc(Cc2nn(C(C)(C)C)c3ncnc(N)c23)cc1 [Compound 33] | + |
| CC(C)(C)n1nc(-c2cccc([N+](=O)[O-])c2)c2c(N)ncnc21 [Compound 16] | + |
| CC(C)(C)n1nc(-c2ccc(-c3ccccc3)cc2)c2c(N)ncnc21 [Compound 88] | active |
| CC(C)n1cc(-c2cccc(O)c2)c2c(N)ncnc21 [Compound 50] | active |
| CC(c1ccccc1)c1nn(C(C)(C)C)c2ncnc(N)c12 (stereo not shown) [Compound 34] | + |
| CC(C)(C)n1nc(CC2CCCC2)c2c(N)ncnc21 [Compound 35] | + |
| Cc1sccc1Cc1n[nH]c2ncnc(N)c12 [Compound 66] | active |
| CNc1ncnc2c1c(-c1cccc(N)c1)nn2C(C)C [Compound 56] | + |
| CCCCCCn1nc(Cc2ccccc2Cl)c2c(N)ncnc21 [Compound 87] | active |
| CC(C)(C)n1nc(CCc2ccccc2)c2c(N)ncnc21 [Compound 29] | + |
| Nc1ncnc2c1c(Cc1ccccc1Cl)nn2CCCCO [Compound 74] | + |
| COc1ccc(Cc2nn(C(C)(C)C)c3ncnc(N)c23)cc1 [Compound 27] | + |
| Nc1ncnc2[nH]nc(-c3ccc4ccccc4c3)c12 [Compound 47] | active |
| CCCn1nc(Cc2ccccc2Cl)c2c(N)ncnc21 [Compound 83] | active |
| CN(C)c1ncnc2c1c(Cc1ccccc1Cl)nn2C(C)(C)C [Compound 80] | active |
| CC(C)(C)n1nc(Cc2ccc(F)cc2F)c2c(N)ncnc21 [Compound 78] | active |
| Cc1cccc(Cc2nn(C(C)(C)C)c3ncnc(N)c23)c1 [Compound 32] | + |

| Compound | Activity |
| --- | --- |
| Nc1ncnc2c1c(-c1ccccc1)nn2-c1ccccc1 [Compound 49] | + |
| CC(C)(C)n1nc(Cc2ccc(F)cc2Cl)c2c(N)ncnc21 [Compound 69] | + |
| CC(C)(C)n1nc(Cc2cccc(F)c2F)c2c(N)ncnc21 [Compound 82] | active |
| Clc1ncnc2c1c(-c1ccccc1)nn2Cc1ccccc1 [Compound 57] | + |
| CC(C)(C)n1nc(Cc2ccc(Cl)cc2)c2c(N)ncnc21 [Compound 23] | + |
| CC(C)(C)n1nc(-c2ccccc2Cl)c2c(N)ncnc21 [Compound 37] | + |
| CC(C)(C)n1nc(Cc2ccccc2O)c2c(N)ncnc21 [Compound 26] | + |
| CC(C)(C)n1nc(Cc2cccc(Br)c2)c2c(N)ncnc21 [Compound 2] | + |
| Cc1cccc(Cc2nn(C(C)(C)C)c3ncnc(N)c23)c1C [Compound 6] | active |
| CC(C)(C)n1nc(Cc2ccc(Cl)c(Cl)c2)c2c(N)ncnc21 [Compound 4] | + |
| COC(=O)Cn1nc(Cc2cccc3ccccc23)c2c(N)ncnc21 [Compound 42] | + |
| CC(C)(C)n1nc(-c2cccc(OCc3c(Cl)cccc3Cl)c2)c2c(N)ncnc21 [Compound 20] | + |
| CC(C)(C)n1nc(Cc2c(Cl)cccc2Cl)c2c(N)ncnc21 [Compound 60] | active |
| CC(C)(C)n1nc(C2CCCC2)c2c(N)ncnc21 [Compound 38] | + |
| CC(C)(C)n1nc(Cc2c(F)cccc2F)c2c(N)ncnc21 [Compound 81] | active |
| CC(C)(C)n1nc(-c2cccc(OCc3ccccc3)c2)c2c(N)ncnc21 [Compound 21] | + |
| CC(C)(C)n1nc(-c2ccccc2OCc2ccccc2)c2c(N)ncnc21 [Compound 40] | + |
| CC(C)(C)n1nc(C2(c3ccccc3Cl)CC2)c2c(N)ncnc21 [Compound 77] | active |
| Nc1ncnc2[nH]nc(Cc3ccccc3)c12 [Compound 45] | + |
| CC(C)Cc1n[nH]c2ncnc(N)c12 [Compound 44] | + |
